The results in this text go back to PubChem BioAssay (NCI).

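In this assay, cells in 96-well plates receive the compound at five concentrations for 48 hours. Endpoints are linearly interpolated between the surrounding concentrations. Here, GI50 denotes the concentration required for 50% inhibition of growth. TGI denotes the concentration required for complete inhibition of growth.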

Common to all, as to assay: NCI-60 cell line screen, 48 h
In assay [1] the test system is UO-31 renal.
The subject of assay [2] is SW-620 colon.
The subject of assay [3] is SF-295 CNS.
The subject of assay [4] is CCRF-CEM leukemia.
Assay [5] deals with NCI-H522 lung.
The subject of assay [6] is MOLT-4 leukemia.
In assay [7] the test system is IGROV1 ovarian.
The subject of assay [8] is OVCAR-5 ovarian.
For assay [9], the system named is LOX IMVI melanoma.
The test system of assay [10] is HCT-15 colon.

In the case of `O=C(Nc1ccc(Br)cc1F)c1cc(Cl)ccc1O`, the GI50 is 0.207 µM in assay [1]; 1.05 µM in assay [2]; 1.77 µM in [3]; 2.08 µM in assay [4]; 0.361 µM in assay [5]; 1.76 µM in [6]. Also, the GI50 in [7] was 0.388 µM; in assay [8] it was 3.67 µM; in [9], 0.501 µM; in assay [10], 0.972 µM. The TGI in [1] was 2.36 µM; in [2], > 39.2 µM; in assay [3] it was 3.65 µM; in assay [4] it was 7.63 µM; in assay [5], 4.34 µM; in assay [6], 5.11 µM. Also, the TGI in assay [7] is > 100 µM; in assay [8], > 100 µM; in [9], 3.76 µM; in assay [10], 10.5 µM.
Take `CN1CCN(c2ccc(Nc3cc(-c4cccc(-n5ccc6cc(C7CC7)cc(F)c6c5=O)c4CO)cn(C)c3=O)nc2)CC1`: the GI50 is 1.72 µM in [1]; 4.74 µM in assay [2]; 10.5 µM in [3]; 2.19 µM in [4]; 4.33 µM in assay [5]; 3.73 µM in assay [6]. The GI50 was 8.65 µM in assay [7], 2.82 µM in assay [8], 3.4 µM in [9] and 5.11 µM in assay [10]. Further, the TGI was 3.46 µM in assay [1]; 23.9 µM in assay [2]; 24.2 µM in assay [3]; 7.73 µM in assay [4]; 21 µM in assay [5]; 19.1 µM in assay [6]. In addition, the TGI in assay [7] came out at 25.7 µM; in assay [8], 9.75 µM; in assay [9], 12.7 µM; in assay [10], 26.1 µM.
Turning to `COC(=O)/C(=C/c1ccc(OC)cc1)C(C(=O)O)=C1CCCC1`, the TGI in assay [1], in [2], in assay [3], in [4], in assay [5] and in assay [6] was > 100 µM throughout. For the same compound, the TGI in assay [7], in assay [8], in [9] and in assay [10] was > 100 µM throughout.
Take `COc1ccc(OCC(=O)O)c2c1CCCC2=O`: the TGI in assay [1], in assay [2], in assay [3], in [4], in assay [5] and in assay [6] was > 100 µM in each case. Besides, the TGI in assay [7], in assay [8], in assay [9] and in assay [10] was > 100 µM in each case.
With `N=c1c2c(-c3ccccc3)c(-c3ccccc3)n(Cc3ccccc3)c2ncn1C1CCC(O)CC1` (stereo not given), the GI50 in [1] is 0.258 µM; in assay [2], 0.0497 µM; in assay [3] it was 0.0836 µM; in assay [4] it was 0.321 µM; in assay [5] it was 0.576 µM; in assay [6], 0.075 µM. For the same compound, the GI50 in assay [7] is 0.0902 µM; in [8] it was 5.84 µM; in [9], 0.14 µM; in assay [10] it was 0.27 µM. The TGI in assay [1] came to 1.65 µM; in assay [2], 12.9 µM; in assay [3], 1.45 µM; in assay [4] it was 9.25 µM; in assay [5], 5.61 µM; in assay [6], 4.83 µM. The TGI stood at 4.49 µM in assay [7], 22.4 µM in [8], 1.69 µM in [9] and 14.7 µM in assay [10].
For the compound `NS(=O)(=O)c1ccc(N=Nc2c(O)c(C(=O)O)cc3ccccc23)cc1`, the TGI in assay [1], in assay [2], in assay [3], in [4], in [5] and in assay [6] was > 100 µM each time. The TGI in assay [7], in assay [8], in assay [9] and in assay [10] was > 100 µM in each case.
For `COC(=O)c1c2c(c(C)[n+]([O-])c1C)C(=O)C=C(NCc1ccc(F)cc1)C2=O`, the GI50 is 1.24 µM in [1]; 0.344 µM in assay [2]; 0.592 µM in assay [3]; 0.5 µM in assay [4]; 0.792 µM in [5]; 0.858 µM in assay [6]. Further, the GI50 in assay [7] was 0.363 µM; in assay [8], 1.39 µM; in assay [9], 0.224 µM; in [10], 0.341 µM. Also, the TGI in assay [1] was 2.53 µM; in [2], 1.38 µM; in assay [3], 1.94 µM; in assay [4], 6 µM; in [5], 3.2 µM; in assay [6], 3.09 µM. Also, the TGI in assay [7] came out at 1.61 µM; in assay [8], 2.88 µM; in [9] it was 2.09 µM; in [10], 1.86 µM.
In the case of `CCN(CC)CCNc1nc(N)c(C#N)c(C#N)c1C#N`, the TGI in [1], in assay [2], in assay [3], in assay [4], in [5] and in assay [6] was > 10 µM each time. Also, the TGI in assay [7], in assay [8], in assay [9] and in [10] was > 10 µM in each case.
As for `O=C(NC[C@H](O)CN1CCc2ccccc2C1)c1cc(NC2COC2)ncn1`, the GI50 in assay [1] was 11.8 µM; in [2] it was 11 µM; in [3] it was 14.7 µM; in assay [4] it was 26.9 µM; in assay [5], 23 µM; in assay [6], 15.1 µM. Also, the GI50 in assay [7] is 15.7 µM; in [8] it was 36.8 µM; in [9], 7.21 µM; in assay [10], 22.7 µM. Also, the TGI was 97.1 µM in [1]; 61.7 µM in assay [2]; > 100 µM in [3]; > 100 µM in [4]; 68.3 µM in assay [5]; 49.3 µM in assay [6]. Also, the TGI is 39.9 µM in assay [7], > 100 µM in [8], 23.3 µM in assay [9] and > 100 µM in assay [10].
